Converted amounts (≈) assume the structure as drawn.
Key:
Test in all cases: MIC, broth microdilution
Salmonella spp. GC 235 = settings: Salmonella, SPP.GC235, Salmonella spp. GC 235
Salmonella spp. GC 566 = settings: Salmonella, SPP.GC566, Salmonella spp. GC 566
Description: (§1) Antimicrobial susceptibility testing. The in vitro activities of the antibiotics are determined by the broth microdilution method as recommended by the National Committee for Clinical Laboratory Standards (NCCLS) (1). Mueller-Hinton II broth (MHBII)(BBL Cockeysville, Md.) is the medium employed in the testing procedures. Microtiter plates containing serial dilutions of each antimicrobial agent are inoculated with each organism to yield the appropriate density (10^5 CFU/ml) in a 100 μl final volume. The plates are incubated for 18-22 hours at 35° C. in ambient air.
(§2) Presented in Tables I-XIII are representative compounds of Formula I which were evaluated against a panel of 40 selected gram-positive and gram-negative bacteria strains by pre-incubation in water, mouse serum or human serum. Representative compounds were first incubated in mouse serum for an hour prior to the in vitro testing against a panel of selected gram-positive and gram-negative bacteria strains. All compounds were also pre-incubated in water for an hour prior to testing as control. Representative compounds of Formula I were incubated in human serum prior to MIC determination.

S. cholerasius GC 1355 = settings: S. cholerasius GC 1355
Description: as §1, §2

Row | Compound | MIC (Salmonella spp. GC 235; Mouse Serum pre-incubation) [µg/mL] | MIC (Salmonella spp. GC 235; Water pre-incubation) [µg/mL] | MIC (Salmonella spp. GC 566; Mouse Serum pre-incubation) [µg/mL] | MIC (Salmonella spp. GC 566; Water pre-incubation) [µg/mL] | MIC (S. cholerasius GC 1355; Mouse Serum pre-incubation) [µg/mL] | MIC (S. cholerasius GC 1355; Water pre-incubation) [µg/mL]
1 | CCCCN(CC(=O)Nc1cc(N(C)C)c2c(c1O)C(=O)C1=C(O)[C@]3(O)C(=O)C(C(N)=O)=C(O)[C@@H](N(C)C)C3CC1C2)C(=O)OCOC(=O)c1ccc(OC)cc1 (stereo partly drawn) [Example 2, ({[(2-{[(7S,10aS)-9-(aminocarbonyl)-4,7-bis(dimethylamino)-1,8,10a,11-tetrahydroxy-10,12-dioxo-5,5a,6,6a,7,10,10a,12-octahydrotetracen-2-yl]amino}-2-oxoethyl)(butyl)amino]carbonyl}oxy)methyl 4-methoxybenzoate] | 8 (≈ 10.1 µM) | > 64 | 8 (≈ 10.1 µM) | > 64 | > 64 | > 64
2 | CCCCN(CC(=O)Nc1cc(N(C)C)c2c(c1O)C(=O)C1=C(O)[C@]3(O)C(=O)C(C(N)=O)=C(O)[C@@H](N(C)C)C3CC1C2)C(=O)OCOC(=O)c1ccc(C)cc1 (stereo partly drawn) [Example 3, ({[(2-{[(7S,10aS)-9-(aminocarbonyl)-4,7-bis(dimethylamino)-1,8,10a,11-tetrahydroxy-10,12-dioxo-5,5a,6,6a,7,10,10a,12-octahydrotetracen-2-yl]amino}-2-oxoethyl)(butyl)amino]carbonyl}oxy)methyl 4-methylbenzoate] | 2 (≈ 2.57 µM) | > 64 | 4 (≈ 5.14 µM) | > 64 | 16 (≈ 20.6 µM) | > 64
3 | CCCN(CC(=O)Nc1cc(N(C)C)c2c(c1O)C(=O)C1=C(O)[C@]3(O)C(=O)C(C(N)=O)=C(O)[C@@H](N(C)C)[C@@H]3C[C@@H]1C2)C(=O)OCOC(=O)c1ccc(OC)cc1 [Example 6, ({[(2-{[(5aR,6aS,7S,10aS)-9-(aminocarbonyl)-4,7-bis(dimethylamino)-1,8,10a,11-tetrahydroxy-10,12-dioxo-5,5a,6,6a,7,10,10a,12-octahydrotetracen-2-yl]amino}-2-oxoethyl)(propyl)amino]carbonyl}oxy)methyl 4-methoxybenzoate] | 2 (≈ 2.56 µM) | 16 (≈ 20.5 µM) | 4 (≈ 5.13 µM) | 64 (≈ 82.1 µM) | 16 (≈ 20.5 µM) | > 64
4 | CCCN(CC(=O)Nc1cc(N(C)C)c2c(c1O)C(=O)C1=C(O)[C@]3(O)C(=O)C(C(N)=O)=C(O)[C@@H](N(C)C)[C@@H]3C[C@@H]1C2)C(=O)OCOC(=O)C1CCC1 [Example 7, ({[(2-{[(5aR,6aS,7S,10aS)-9-(aminocarbonyl)-4,7-bis(dimethylamino)-1,8,10a,11-tetrahydroxy-10,12-dioxo-5,5a,6,6a,7,10,10a,12-octahydrotetracen-2-yl]amino}-2-oxoethyl)(propyl)amino]carbonyl}oxy)methyl cyclobutanecarboxylate] | 2 (≈ 2.75 µM) | 8 (≈ 11 µM) | 1 (≈ 1.37 µM) | 16 (≈ 22 µM) | 16 (≈ 22 µM) | > 64
5 | CCCN(CC(=O)Nc1cc(N(C)C)c2c(c1O)C(=O)C1=C(O)[C@]3(O)C(=O)C(C(N)=O)=C(O)[C@@H](N(C)C)[C@@H]3C[C@@H]1C2)C(=O)OCOC(=O)c1ccc(F)cc1 [Example 8, ({[(2-{[(5aR,6aS,7S,10aS)-9-(aminocarbonyl)-4,7-bis(dimethylamino)-1,8,10a,11-tetrahydroxy-10,12-dioxo-5,5a,6,6a,7,10,10a,12-octahydrotetracen-2-yl]amino}-2-oxoethyl)(propyl)amino]carbonyl}oxy)methyl 4-fluorobenzoate] | 4 (≈ 5.21 µM) | 64 (≈ 83.4 µM) | 4 (≈ 5.21 µM) | > 64 | 32 (≈ 41.7 µM) | > 64
6 | CCCN(CC(=O)Nc1cc(N(C)C)c2c(c1O)C(=O)C1=C(O)[C@]3(O)C(=O)C(C(N)=O)=C(O)[C@@H](N(C)C)[C@@H]3C[C@@H]1C2)C(=O)OCOC(=O)C(C)(C)C [Example 9, ({[(2-{[(5aR,6aS,7S,10aS)-9-(aminocarbonyl)-4,7-bis(dimethylamino)-1,8,10a,11-tetrahydroxy-10,12-dioxo-5,5a,6,6a,7,10,10a,12-octahydrotetracen-2-yl]amino}-2-oxoethyl)(propyl)amino]carbonyl}oxy)methyl pivalate] | 1 (≈ 1.37 µM) | 8 (≈ 11 µM) | 2 (≈ 2.74 µM) | 64 (≈ 87.7 µM) | 64 (≈ 87.7 µM) | > 64
7 | CCCN(CC(=O)Nc1cc(N(C)C)c2c(c1O)C(=O)C1=C(O)[C@]3(O)C(=O)C(C(N)=O)=C(O)[C@@H](N(C)C)[C@@H]3C[C@@H]1C2)C(=O)OCOC(=O)C(C)C [Example 10, ({[(2-{[(5aR,6aS,7S,10aS)-9-(aminocarbonyl)-4,7-bis(dimethylamino)-1,8,10a,11-tetrahydroxy-10,12-dioxo-5,5a,6,6a,7,10,10a,12-octahydrotetracen-2-yl]amino}-2-oxoethyl)(propyl)amino]carbonyl}oxy)methyl 2-methylpropanoate] | 0.5 (≈ 0.699 µM) | 32 (≈ 44.7 µM) | 2 (≈ 2.79 µM) | > 64 | 16 (≈ 22.4 µM) | > 64

From patent US20070049564A1 (Wyeth, priority 2005, published 2007)
